Patent US6846817B2 (Regents of the University of Minnesota, priority 1999, dated 2005)
Where a name gives a salt, the structure may show the parent alone. Read-outs that look alike come from different tables or passages of the source.

What was measured:
α4β2 nicotine receptor = α4β2 nicotine receptor (Rattus norvegicus, UniProt P09483+P12390); assay: Test A: [3H]cytisine binding
dopamine D2 receptors = dopamine D2 receptors (Homo sapiens, UniProt P14416); assay: Binding to dopamine D2 receptors
dopamine transporter = dopamine transporter (Homo sapiens, UniProt Q01959); assay: Binding to dopamine transporter sites
serotonin transporter = serotonin transporter (Homo sapiens, UniProt P31645); assay: Binding to serotonin transporter sites
[1] = test system: nicotinic acetylcholine receptor (nAChR); assay: Test C: 86Rb+ efflux from rat cortical synaptosomes; format: cell-based
striatal synaptosomes = assay: Test D: striatal [3H]dopamine release; format: cell-based, rat
hippocampal synaptosomes = assay: Test E: [3H]ACh release; format: cell-based, rat
Description: Drug-induced release of [^3H]ACh from hippocampal synaptosomes was measured as described by Sullivan et al. (1997). (J. Pharmacol. Exptl. Ther. 283: 235-246). The F4 synaptosomal fraction was washed with Kreb's buffer containing 118.5 mM NaCl, 25 mM NaHCO3, 1.2 mM KCl, 1.2 mM KH2PO4, 2.5 mM CaCl2, 2.5 mM MgCl2, 10 mM glucose gassed with 95% O2/5% CO2 to pH 7.4 and re-suspended at 1 mg protein/mL. The synaptosomes were loaded with [^3H]choline by incubation with 0.8 μM [^3H]choline (2 Ci/mmol). Aliquots of the incubation mixture were then loaded into the perfusion chamber of a Brandell harvester and perfused with Kreb's buffer (37° C.) at a flow rate of 0.25 mL/min. Three-minute fractions were collected and measured for radioactivity. Drugs for study were administered as 20-s pulses. The [^3H]ACh release evoked by study compounds was normalized to (−)-nicotine-evoked release and to the total radioactivity accumulated by synaptosomes. Evoked release of [^3H]ACh from rat hippocampal synaptosomes was measured as the area under the peak above base release. The EC50 value is determined by nonlinear least squares regression analysis.

[2] = test system: ovariectomized female rats; assay: Test F: object recognition memory test; format: in vivo, rat
[3] = target: α4β2 nicotinic acetylcholine receptor subtype (Rattus norvegicus, UniProt P09483+P12390); details: cited from earlier work
[4] = target: neuronal [3H]-cytisine binding site (Homo sapiens, UniProt P17787+P43681); details: read-out: Ki, neuronal [3H]-cytisine binding site; cited from earlier work
nerve-injured mice = assay: Test G: Chung model of neuropathic pain, inhibition of tactile sensitivity; format: in vivo, mouse
Description: After hemostasis is confirmed, the wound is sutured with 3-0 silk thread and the skin closed with sterile wound clips. The animals are fully mobile within thirty minutes of cessation of anesthetic. As a control, in a separate group of animals, a sham surgery identical to the above (but without nerve ligation) is performed. Nociception is evaluated by responsiveness to multiple applications (10 per hindpaw) of a single vF filament to the plantar surface of each hind paw. When the stimulus is of sufficient force, the mouse will lick, withdraw and/or shake the paw; this action represents the behavioral endpoint. In nerve-injured mice, a vF filament (#3.61) exerting 3.3 mN of force elicited 66±1.3% responsiveness on the paw ipsilateral to the injury.
Inhibition of Tactile Sensitivity. Varying doses of the compounds are administered to test for inhibition of tactile sensitivity. Percent inhibition is determined relative to the mean number of paw withdrawals (PW) elicited by force and according to the following equation: [formula] Each mouse serves as its own control.
Three groups of animals were used for this experiment. Animals in each group received an intrathecal injection of physiological saline to assess the control response. […] The responses were assessed as described above.

Male Wistar rats = details: rat, in vivo
α7 subtype = α7 subtype (Homo sapiens, UniProt P36544); details: read-out: Ki at the α7 subtype; cited from earlier work
[5] = test system: nicotinic acetylcholine receptor as PC12 cells; details: cited from earlier work
[6] = target: human muscle nicotinic acetylcholine receptor subtype (Homo sapiens, UniProt P02708+P07510+P11230+Q07001); details: cited from earlier work
[7] = rat brain, compounds tested in racemic form, read-out: Ki-[3H]Cytisine

Chain of dopamine transporter (Q01959 whole entry): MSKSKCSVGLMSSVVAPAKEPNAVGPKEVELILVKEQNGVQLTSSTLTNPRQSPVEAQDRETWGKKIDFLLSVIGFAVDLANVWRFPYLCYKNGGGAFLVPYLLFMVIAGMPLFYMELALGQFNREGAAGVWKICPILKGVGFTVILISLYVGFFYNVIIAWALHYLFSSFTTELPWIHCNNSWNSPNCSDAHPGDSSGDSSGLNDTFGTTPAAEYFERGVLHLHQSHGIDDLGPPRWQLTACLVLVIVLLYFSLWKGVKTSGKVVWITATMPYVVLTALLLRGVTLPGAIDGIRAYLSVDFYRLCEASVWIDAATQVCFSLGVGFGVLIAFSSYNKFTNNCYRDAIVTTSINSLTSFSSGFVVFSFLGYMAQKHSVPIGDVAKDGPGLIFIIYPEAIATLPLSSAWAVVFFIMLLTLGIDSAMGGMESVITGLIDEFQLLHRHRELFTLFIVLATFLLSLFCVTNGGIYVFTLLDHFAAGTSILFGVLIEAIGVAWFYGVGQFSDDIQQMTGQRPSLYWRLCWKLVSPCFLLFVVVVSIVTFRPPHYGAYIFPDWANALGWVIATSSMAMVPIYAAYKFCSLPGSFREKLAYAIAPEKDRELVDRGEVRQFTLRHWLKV
Chain of α4β2 nicotine receptor (P09483 31-630): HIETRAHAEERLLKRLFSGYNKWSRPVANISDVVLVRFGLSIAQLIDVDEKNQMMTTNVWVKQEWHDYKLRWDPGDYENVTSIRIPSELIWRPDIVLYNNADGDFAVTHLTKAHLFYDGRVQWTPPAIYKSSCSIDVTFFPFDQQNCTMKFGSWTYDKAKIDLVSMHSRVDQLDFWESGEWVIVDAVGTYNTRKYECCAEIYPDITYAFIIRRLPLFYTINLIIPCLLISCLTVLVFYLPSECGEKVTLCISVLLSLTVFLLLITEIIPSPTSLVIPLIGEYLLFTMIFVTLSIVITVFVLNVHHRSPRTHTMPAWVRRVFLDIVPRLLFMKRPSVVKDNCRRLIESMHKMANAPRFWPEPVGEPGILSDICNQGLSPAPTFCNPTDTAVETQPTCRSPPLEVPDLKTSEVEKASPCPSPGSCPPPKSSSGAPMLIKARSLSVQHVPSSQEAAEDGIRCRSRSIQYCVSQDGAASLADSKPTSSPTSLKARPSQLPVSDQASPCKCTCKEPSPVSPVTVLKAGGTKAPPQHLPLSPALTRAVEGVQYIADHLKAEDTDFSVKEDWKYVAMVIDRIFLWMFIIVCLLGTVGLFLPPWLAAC
Chain of α4β2 nicotine receptor (P12390 25-500): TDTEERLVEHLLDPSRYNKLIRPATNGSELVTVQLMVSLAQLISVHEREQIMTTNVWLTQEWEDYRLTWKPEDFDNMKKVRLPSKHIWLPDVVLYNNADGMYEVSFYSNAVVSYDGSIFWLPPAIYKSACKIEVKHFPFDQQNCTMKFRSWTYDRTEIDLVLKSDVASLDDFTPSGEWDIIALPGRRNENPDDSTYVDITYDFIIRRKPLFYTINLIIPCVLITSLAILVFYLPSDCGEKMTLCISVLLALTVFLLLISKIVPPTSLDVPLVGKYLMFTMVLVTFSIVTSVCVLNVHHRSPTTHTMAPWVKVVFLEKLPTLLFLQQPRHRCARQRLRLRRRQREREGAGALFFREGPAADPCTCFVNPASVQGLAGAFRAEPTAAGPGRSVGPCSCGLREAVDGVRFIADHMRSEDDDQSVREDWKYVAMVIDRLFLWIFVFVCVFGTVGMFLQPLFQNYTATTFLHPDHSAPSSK
Chain of serotonin transporter (P31645 whole entry): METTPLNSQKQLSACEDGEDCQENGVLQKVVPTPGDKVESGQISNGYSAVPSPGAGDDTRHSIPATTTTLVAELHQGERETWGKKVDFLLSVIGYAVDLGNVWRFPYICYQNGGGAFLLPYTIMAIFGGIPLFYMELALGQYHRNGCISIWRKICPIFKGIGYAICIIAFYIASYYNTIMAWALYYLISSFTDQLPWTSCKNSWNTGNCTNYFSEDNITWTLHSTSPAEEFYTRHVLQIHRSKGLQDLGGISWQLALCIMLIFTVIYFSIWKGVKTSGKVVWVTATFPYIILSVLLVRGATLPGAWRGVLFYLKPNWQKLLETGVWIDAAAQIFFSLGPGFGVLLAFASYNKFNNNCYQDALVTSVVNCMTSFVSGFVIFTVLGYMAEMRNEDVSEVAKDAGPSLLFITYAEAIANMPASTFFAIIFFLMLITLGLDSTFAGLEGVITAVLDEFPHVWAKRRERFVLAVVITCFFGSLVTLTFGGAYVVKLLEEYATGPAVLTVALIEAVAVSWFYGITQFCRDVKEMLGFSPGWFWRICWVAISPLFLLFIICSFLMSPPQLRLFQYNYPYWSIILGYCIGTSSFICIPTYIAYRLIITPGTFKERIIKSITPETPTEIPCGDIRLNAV
Chain of dopamine D2 receptors (P14416 whole entry): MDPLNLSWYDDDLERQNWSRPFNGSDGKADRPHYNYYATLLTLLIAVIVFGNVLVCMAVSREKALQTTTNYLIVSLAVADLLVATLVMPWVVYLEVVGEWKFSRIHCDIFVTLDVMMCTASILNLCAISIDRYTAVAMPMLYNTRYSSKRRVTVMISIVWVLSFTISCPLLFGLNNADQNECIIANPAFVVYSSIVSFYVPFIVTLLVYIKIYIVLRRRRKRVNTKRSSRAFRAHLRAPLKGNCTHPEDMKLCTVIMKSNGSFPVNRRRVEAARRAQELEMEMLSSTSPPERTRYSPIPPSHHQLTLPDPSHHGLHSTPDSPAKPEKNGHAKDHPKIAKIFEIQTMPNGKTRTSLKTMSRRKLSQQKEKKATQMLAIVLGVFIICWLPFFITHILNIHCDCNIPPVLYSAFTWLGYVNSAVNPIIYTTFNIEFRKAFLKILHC
Chain of human muscle nicotinic acetylcholine receptor subtype (P11230 24-501): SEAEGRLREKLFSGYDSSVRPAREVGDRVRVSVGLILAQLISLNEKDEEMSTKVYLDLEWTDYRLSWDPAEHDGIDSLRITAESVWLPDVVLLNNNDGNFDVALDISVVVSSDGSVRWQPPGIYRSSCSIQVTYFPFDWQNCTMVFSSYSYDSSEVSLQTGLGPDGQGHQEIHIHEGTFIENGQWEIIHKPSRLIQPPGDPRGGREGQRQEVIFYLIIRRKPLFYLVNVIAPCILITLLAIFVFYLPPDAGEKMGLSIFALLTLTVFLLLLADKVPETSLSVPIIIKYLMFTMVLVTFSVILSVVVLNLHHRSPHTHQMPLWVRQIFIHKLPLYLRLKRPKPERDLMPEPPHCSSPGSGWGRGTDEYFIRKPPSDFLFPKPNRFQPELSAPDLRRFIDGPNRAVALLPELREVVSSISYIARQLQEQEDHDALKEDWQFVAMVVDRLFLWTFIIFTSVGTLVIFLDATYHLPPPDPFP
Chain of human muscle nicotinic acetylcholine receptor subtype (Q07001 22-517): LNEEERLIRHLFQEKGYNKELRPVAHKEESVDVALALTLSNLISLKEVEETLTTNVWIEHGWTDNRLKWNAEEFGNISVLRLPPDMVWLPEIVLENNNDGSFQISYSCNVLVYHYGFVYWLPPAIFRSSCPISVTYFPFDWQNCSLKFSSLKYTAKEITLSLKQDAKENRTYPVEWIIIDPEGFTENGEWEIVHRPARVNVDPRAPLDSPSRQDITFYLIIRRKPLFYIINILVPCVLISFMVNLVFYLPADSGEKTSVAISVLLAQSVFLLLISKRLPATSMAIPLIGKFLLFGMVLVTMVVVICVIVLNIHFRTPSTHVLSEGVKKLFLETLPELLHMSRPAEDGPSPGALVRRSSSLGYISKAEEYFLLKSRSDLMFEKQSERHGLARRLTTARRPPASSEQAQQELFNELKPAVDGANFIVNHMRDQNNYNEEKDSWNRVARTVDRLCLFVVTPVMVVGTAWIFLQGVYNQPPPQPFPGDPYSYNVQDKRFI
Chain of human muscle nicotinic acetylcholine receptor subtype (P02708 21-457): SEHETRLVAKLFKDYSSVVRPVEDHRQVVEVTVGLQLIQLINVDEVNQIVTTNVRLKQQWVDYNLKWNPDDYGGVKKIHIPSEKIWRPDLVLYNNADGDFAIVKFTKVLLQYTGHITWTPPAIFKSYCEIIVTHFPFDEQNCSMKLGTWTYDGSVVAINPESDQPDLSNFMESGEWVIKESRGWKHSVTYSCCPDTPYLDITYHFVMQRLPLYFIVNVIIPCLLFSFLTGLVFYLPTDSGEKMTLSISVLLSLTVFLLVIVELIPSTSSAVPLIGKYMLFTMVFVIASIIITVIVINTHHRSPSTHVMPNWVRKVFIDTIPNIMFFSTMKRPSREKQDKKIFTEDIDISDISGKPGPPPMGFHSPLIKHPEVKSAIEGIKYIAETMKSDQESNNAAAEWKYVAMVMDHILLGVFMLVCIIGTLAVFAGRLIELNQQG
Chain of human muscle nicotinic acetylcholine receptor subtype (P07510 23-517): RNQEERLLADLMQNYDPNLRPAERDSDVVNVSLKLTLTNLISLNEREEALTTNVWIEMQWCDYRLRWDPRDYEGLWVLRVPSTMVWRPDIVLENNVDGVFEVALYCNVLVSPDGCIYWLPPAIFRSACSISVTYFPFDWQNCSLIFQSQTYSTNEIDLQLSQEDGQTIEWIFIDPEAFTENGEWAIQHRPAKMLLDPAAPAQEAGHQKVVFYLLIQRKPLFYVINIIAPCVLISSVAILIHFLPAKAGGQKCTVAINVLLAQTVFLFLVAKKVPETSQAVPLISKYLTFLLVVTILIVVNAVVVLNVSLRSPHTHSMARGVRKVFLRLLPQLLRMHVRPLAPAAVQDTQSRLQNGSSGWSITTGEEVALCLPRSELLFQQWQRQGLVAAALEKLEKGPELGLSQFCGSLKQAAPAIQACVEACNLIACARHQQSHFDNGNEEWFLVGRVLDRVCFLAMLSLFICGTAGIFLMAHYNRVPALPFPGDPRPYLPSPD
Chain of α4β2 nicotinic acetylcholine receptor subtype (P09483 31-630): as the sequence (P09483 31-630) above
Chain of α4β2 nicotinic acetylcholine receptor subtype (P12390 25-500): as the sequence (P12390 25-500) above

CN1CCCCC1CC1=Cc2ccccc2C1 (racemic) [Compound 13, 1-Methyl-2-(2-indenyl)methylpiperidine hydrochloride]
Ki (α4β2 nicotine receptor; [7]): 7.91 µM

COc1ccc2c(c1)CC(CC1CCCCN1C)=C2 (racemic) [Compound 14, 1-Methyl-2-(6-methoxyinden-2-yl)methylpiperidine hydrochloride]
Ki (α4β2 nicotine receptor; [7]): 8.95 µM

CN1CCCCC1CC1=Cc2ccc(O)cc2C1 (racemic) [Compound 15, 1-Methyl-2-(6-hydroxyinden-2-yl)methylpiperidine hydrochloride]
Ki (α4β2 nicotine receptor; [7]): > 10 µM

CN1CCCCC1C1CCc2ccccc2O1 (single isomer, unassigned) (as salt: salt) [Compound 1, erythro-2-(1-Methylpiperidin-2-yl)chroman]
melting point: 164 to 166 °C

CN1CCCCC1C1CCc2ccccc2O1 (single isomer, unassigned) [Compound 1, erythro-2-(1-Methylpiperidin-2-yl)chroman]
Ki (dopamine D2 receptors): > 10 µM
Ki (dopamine transporter): > 10 µM
Ki (serotonin transporter): > 10 µM
peak response of 86Rb+ release (in words) [1]: could match the peak response of S-(−)-nicotine
potency to stimulate the release of 86Rb+ (in words) [1]: lower potency
stimulation of [3H]dopamine release (in words) (striatal synaptosomes): failed to stimulate the release

CN1CCCCC1C1CCc2ccc(O)cc2O1 (single isomer, unassigned) [Compound 8, threo-7-Hydroxy-2-(1-methylpiperidin-2-yl)chroman]
Ki (dopamine D2 receptors): > 10 µM
Ki (dopamine transporter): > 10 µM
Ki (serotonin transporter): > 10 µM

CN1CCCC1C1CCc2ccc(O)cc2O1 (single isomer, unassigned) [Compound 11, erythro-7-Hydroxy-2-(1-methylpyrrolidin-2-yl)chroman]
stimulation of [3H]dopamine release (in words) (striatal synaptosomes; FIG. 10, compound 1 at doses of up to 10 μM): stimulates the release
[3H]Dopamine release (striatal synaptosomes; Table 2 summary in words): High intrinsic activity
[3H]ACh release (hippocampal synaptosomes; Table 2 summary in words): No intrinsic activity
stimulation of [3H]ACh release (in words) (hippocampal synaptosomes; cortical synaptosomes as worded, FIG. 11): little intrinsic activity
exploration times versus saline-treated controls (in words) ([2]; exploration phase, 1 μmol/kg/day): not significantly different
time spent exploring the new object ([2]; recognition phase four hours after exploration, after 7 days s.c. osmotic mini pump, compound 11 1 μmol/kg/day, ARICEPT 1 mg/kg/day): 80.5±5 % (SEM)

Cc1ncccc1OC[C@@H]1CCCN1 [ABT-089 (S)]
less potent than ABT-594 as an inhibitor of [3H]-nicotine binding [3]: about 300 fold

Cc1cc([C@@H]2CCCN2C)on1 [ABT-418]
Ki [4]: 0.0045 µM

COc1cc2c(cc1OC)C(=O)C(CC1CCN(Cc3ccccc3)CC1)C2 (centres unmarked) [ARICEPT, reference compound]
time spent exploring the new object ([2]; rat, in vivo): 60.1±5.4 % (SEM)

CN1CCCCC1C1CCc2ccc(O)cc2O1 (stereo not drawn) [Compound 3, erythro-7-Hydroxy-2-(1-methylpiperidin-2-yl)chroman]
Ki (dopamine D2 receptors): > 10 µM
Ki (dopamine transporter): > 10 µM
Ki (serotonin transporter): > 10 µM
potency to stimulate the release of 86Rb+ (in words) ([1]; compound 3 at 1, 5, 10 and 100 μM, compound 1 at 10 and 100 μM, versus S-(−)-nicotine, FIG. 9): comparable potency
concentration at which peak effects on [3H]dopamine release are obtained (striatal synaptosomes): ~10 µM
effect on K+-evoked release of [3H]dopamine (in words) (striatal synaptosomes): appeared to suppress
stimulation of [3H]dopamine release (in words) (striatal synaptosomes): dose-dependent stimulation
stimulation of [3H]ACh release (in words) (hippocampal synaptosomes): can stimulate the release
inhibition of tactile sensitivity (in words) (nerve-injured mice; intrathecal 30, 60 and 100 pmol): dose-dependent inhibition
inhibition of tactile sensitivity (nerve-injured mice; intrathecal, highest dose tested 100 pmol, FIG. 13): 60%
time of death post-injection (Male Wistar rats; male, Wistar, ip): ≤ 4 min
lethal effects antagonized by mecamylamine pretreatment (Male Wistar rats): three of the four animals
observed effect after administration (Male Wistar rats; ip): severe convulsions

CN1CCCCC1C1CCc2ccc(O)cc2O1 (stereo not drawn) [Compound 4, erythro-7-Hydroxy-2-(1-methylpiperidin-2-yl)chroman]
86Rb+ efflux [1]: High intrinsic activity
[3H]Dopamine release (striatal synaptosomes): Low to moderate activity
[3H]ACh release (hippocampal synaptosomes): High intrinsic activity

CN1CCCCC1C1CCc2c(O)cccc2O1 (stereo not drawn) [Compound 5, erythro-5-Hydroxy-2-(1-methylpiperidin-2-yl)chroman]
Ki (dopamine D2 receptors): > 10 µM
Ki (dopamine transporter): > 10 µM
Ki (serotonin transporter): > 10 µM

O=c1cccc2n1C[C@@H]1CNC[C@H]2C1 [Cytisine, reference compound]
Ki (α4β2 nicotine receptor; Ki-[3H]Cytisine): 0.0009 µM
Ki (α4β2 nicotine receptor; read-out: Ki-[3H]Cytisine): 0.00278 µM

CNCC/C=C/c1cccnc1 [RJR-2403]
Ki (α7 subtype): 36 µM
receptor activation (in words) [5]: does not significantly activate
receptor activation (in words) [6]: does not significantly activate

CN1CCC[C@H]1c1cccnc1 [S-(−)-nicotine, reference compound]
stimulation of [3H]dopamine release (in words) (striatal synaptosomes): dose-dependent
